The subject of this experiment is production of CD69 by B lymphocytes in human whole blood. Briefly: CD69 Whole Blood Assay (CD69 Hu Blood FACS). The experiment is classed as cell-based. Particulars: Lymphocyte, stimulated with goat F(ab')2 anti-human IgM, 20 hours, CD69 positive of CD20 positive cells. An excerpt:
A CD69 Whole Blood Assay can be conducted on Formula I compounds to determine the ability of compounds to inhibit the production of CD69 by B lymphocytes in human whole blood activated by crosslinking surface IgM with goat F(ab′)2 anti-human IgM (Example 907). CD69 is a type II C-type lectin involved in lymphocyte migration and cytokine secretion. CD69 expression represents one of the earliest available indicators of leukocyte activation and its rapid induction occurs through transcriptional activation (Vazquez et al (2009) Jour. of Immunology Published Oct. 19, 2009, doi:10.4049/jimmunol.0900839). Concentration-dependent inhibition of antigen receptor stimulation by selective Btk inhibitors induces cell surface expression of the lymphocyte activation marker CD69 (Honigberg et al (2010) Proc. Natl. Acad. Sci. 107(29):13075-13080). Thus, CD69 inhibition by selective Btk inhibitors may be correlated with therapeutic efficacy of certain B-cell disorders.
Human blood is obtained from healthy volunteers, with the following restrictions: 1 week drug-free, non-smokers. Blood (approximately 20 mls to test 8 compounds) is collected by venipuncture into Vacutainer® (Becton, Dickinson and Co.) tubes with sodium heparin.
Solutions of Formula I compounds at 10 mM in DMSO are diluted 1:10 in 100% DMSO, then are diluted by three-fold serial dilutions in 100% DMSO for a ten point dose-response curve. The compounds are further diluted 1:10 in PBS and then an aliquot of 5.5 μl of each compound is added in duplicate to a 2 ml 96-well plate; 5.5 μl of 10% DMSO in PBS is added as control and no-stimulus wells. Human whole blood—HWB (100 μl) is added to each well. After mixing the plates are incubated at 37° C., 5% CO2, 100% humidity for 30 minutes. Goat F(ab′)2 anti-human IgM (10 μl of a 500 μg/ml solution, 50 μg/ml final) is added to each well (except the no-stimulus wells) with mixing and the plates are incubated for an additional 20 hours. At the end of the 20 hour incubation, samples are incubated with fluorescent labeled antibodies for 30 minutes, at 37° C., 5% CO2, 100% humidity. Include induced control, unstained and single stains for compensation adjustments and initial voltage settings. Samples are then lysed with PharM Lyse™ (BD Biosciences Pharmingen) according to the manufacturer's instructions. Samples are then transferred to a 96 well plate suitable to be run on the BD Biosciences HTS 96 well system on the LSRII machine. Data acquired and Mean Fluorescence Intensity values were obtained using BD Biosciences DIVA Software. Results are initially analyzed by FACS analysis software (Flow Jo).

One may read the IC70 as the point of the concentration-response curve where the effect stands at 70%. For `CN1CCN(c2ccc(Nc3cc(-c4cc(F)cc(N5CCn6c(cc7c6CCCC7)C5=O)c4CO)cn(C)c3=O)nc2)CC1CF` (stereo not shown) [Compound 111, 2-(5-fluoro-3-(5-(5-(3-(fluoromethyl)-4-methylpiperazin-1-yl)pyridin-2-ylamino)-1-methyl-6-oxo-1,6-dihydropyridin-3-yl)-2-(hydroxymethyl)phenyl)-3,4,6,7,8,9-hexahydropyrazino[1,2-a]indol-1(2H)-one], the IC70 came to 92 nM.

Source of the values: patent US9115152B2, “Alkylated piperazine compounds” (Genentech, Inc., priority 2011, dated 2015).
